Reference: patent publication US8956662B2, “Phenylephrine pharmaceutical formulations and compositions for colonic absorption” (MSD Consumer Care, Inc., priority 2006, dated 2015)
Counter-ions that a name gives are not always drawn. Like-named read-outs stand apart in the source and are kept apart here. Blank lines part the entries; values can stand above or below the molecule they belong to.

Experiments:
[1] = Bioavailability of phenylephrine: plasma levels after delivery to the colon via Enterion capsules or oral Sudafed PE; type: in vivo, human; conditions: for t1/2, unconjugated Phenylephrine / Tmax, unconjugated Phenylephrine: hydrochloride; for Tlag, unconjugated Phenylephrine / Tmax, unconjugated Phenylephrine: median (range); for AUC(0-t) / Cmax / bioavailability / concentration at 0.083 h / concentration at […] / concentration at 0.5 h / concentration at 1 h / concentration at 2 h / concentration at 3 h / concentration at 4 h / concentration at 6 h / concentration at 8 h / concentration at 12 h / concentration at 14 h / concentration at 16 h / concentration at 24 h: both sexes, human, plasma, oral; for Cmax: read-out: Cmax, unconjugated Phenylephrine; for bioavailability: read-out: Frel last (bioavailability relative to immediate release oral formulation), unconjugated Phenylephrine; for concentration at 0.083 h: 0.083 h post-dose; for concentration at 0.083 h / concentration at […] / concentration at 0.5 h / concentration at 1 h / concentration at 2 h / concentration at 3 h / concentration at 4 h / concentration at 6 h / concentration at 8 h / concentration at 12 h / concentration at 14 h / concentration at 16 h / concentration at 24 h: read-out: Mean plasma concentration (Unconjugated); for concentration at 0.5 h: 0.5 h post-dose; for concentration at 1 h: 1 h post-dose; for concentration at 2 h: 2 h post-dose; for concentration at 3 h: 3 h post-dose; for concentration at 4 h: 4 h post-dose; for concentration at 6 h: 6 h post-dose; for concentration at 8 h: 8 h post-dose; for concentration at 12 h: 12 h post-dose; for concentration at 14 h: 14 h post-dose; for concentration at 16 h: 16 h post-dose; for concentration at 24 h: 24 h post-dose
Procedure: The following study was conducted to examine the phenylephrine absorption behavior in GI tract. […] Enterion™ capsules (Pharmaceutical Profiles Ltd, UK) allow for deployment of drug delivery at a desired location within the GI tract. To determine the capsules had reached a desired location, preparations of regimens A and C were administered orally with 210 mL water followed by a radiolabeled drink containing 4 MBq 99m-Tc-diethylenetriaminepetaacetic acid (DTPA) in 30 mL water so that the location of the ingested materials could be visualized by scintigraphic imaging. […] The blood samples were collected into a tube containing lithium heparin, centrifuged within 30 minutes at 1500 g for 15 minutes at 4 degrees Celsius. The plasma was analyzed for phenylephrine in its conjugated and unconjugated forms. The amount of conjugated phenylephrine was calculated by subtracting the amount of unconjugated phenylephrine assayed from the amount of total phenylephrine assayed.
The relative bioavailability, shown as Frel last in the table, indicates the bioavailability of phenylephrine administered to the colon relative to that administered as an immediate release oral formulation.

[2] = oral dosage forms; cited from earlier work
[3] = conventional tablet formulation; cited from earlier work
[4] = 10 mg PE-colon (Regimen A) n = 8
[5] = 30 mg PE-colon (Regimen C) n = 6
[6] = 10 mg PE-colon (Regimen A) n = 8, mean ± SD
[7] = 10 mg to colon via Enterion capsule (Regimen A)
[8] = 30 mg PE-colon (Regimen C) n = 6, mean ± SD
[9] = 30 mg to colon via Enterion capsule (Regimen C)

t1/2, unconjugated Phenylephrine ([1]; 10 mg PE-colon (Regimen A) n = 2, mean): 8.19 (n = 2) hours
Tlag, unconjugated Phenylephrine [1, 4]: 0.0800 (0–0.750)a hours
Tmax, unconjugated Phenylephrine [1, 4]: 1.50 (0.250–3.00)a hours
active unconjugated form as share of total phenylephrine concentration over time in plasma (AUC0-∞ unconjugated / AUC0-∞ total) ([1]; 10 mg phenylephrine in immediate release form): ≤ 0.5%
active unconjugated form as share of total phenylephrine concentration over time in plasma (AUC0-∞ unconjugated / AUC0-∞ total) ([1]; 10 mg phenylephrine released in the colon): approximately 2.2%
t1/2, unconjugated Phenylephrine ([1]; 30 mg PE-colon (Regimen C) n = 3, mean ± SD): 10.8 ± 7.99 (n = 3) hours
Tlag, unconjugated Phenylephrine [1, 5]: 0 (0–0.750)a hours
Tmax, unconjugated Phenylephrine [1, 5]: 2.25 (0.750–6.03)a hours
active unconjugated form as share of total phenylephrine concentration over time in plasma (AUC0-∞ unconjugated / AUC0-∞ total) ([1]; 30 mg phenylephrine released in the colon): Approximately 5%
increase of bioavailability versus oral immediate release form ([1]; absorption from the lower intestinal tract): by a factor of three
AUC(0-t) ([1]; 10 mg, 10 mg PE-colon (Regimen A) n = 2, mean, read-out: AUC0–24, unconjugated Phenylephrine (Table 13)): 2.87 ng·h/mL
AUC(0-t) ([1]; 10 mg, 10 mg phenylephrine hydrochloride delivered to the colon, read-out: mean AUC0-24 value of unconjugated phenylephrine): 1.58 ± 0.915 ng·h/mL
AUC(0-t) ([1]; 30 mg, 30 mg PE-colon (Regimen C) n = 3, mean ± SD, read-out: AUC0–24, unconjugated Phenylephrine (Table 13)): 8.94 ± 5.16 ng·h/mL
AUC(0-t) ([1]; 30 mg, 30 mg phenylephrine hydrochloride delivered to the colon, read-out: mean AUC0-24 value of unconjugated phenylephrine): 5.17 ± 1.56 ng·h/mL
Cmax [1, 6]: 0.4 ± 0.454 ng/mL
bioavailability [1, 6]: 332 ± 232%
concentration at 0.083 h [1, 7]: 0.0586 ng/mL
concentration at […] ([1]; 10 mg to colon via Enterion capsule (Regimen A), 0.25 h post-dose): 0.304 ng/mL
concentration at 0.5 h [1, 7]: 0.145 ng/mL
concentration at […] ([1]; 10 mg to colon via Enterion capsule (Regimen A), 0.75 h post-dose): 0.125 ng/mL
concentration at 1 h [1, 7]: 0.135 ng/mL
concentration at […] ([1]; 10 mg to colon via Enterion capsule (Regimen A), 1.5 h post-dose): 0.16 ng/mL
concentration at 2 h [1, 7]: 0.187 ng/mL
concentration at […] ([1]; 10 mg to colon via Enterion capsule (Regimen A), 2.5 h post-dose): 0.182 ng/mL
concentration at 3 h [1, 7]: 0.165 ng/mL
concentration at 4 h [1, 7]: 0.15 ng/mL
concentration at 6 h [1, 7]: 0.111 ng/mL
concentration at 8 h [1, 7]: 0.068 ng/mL
concentration at 12 h [1, 7]: 0.058 ng/mL
concentration at 14 h [1, 7]: 0.059 ng/mL
concentration at 16 h [1, 7]: 0.064 ng/mL
concentration at 24 h [1, 7]: 0.059 ng/mL
Cmax [1, 8]: 0.468 ± 0.174 ng/mL
bioavailability [1, 8]: 333 ± 140%
concentration at 0.083 h [1, 9]: 0.0458 ng/mL
concentration at […] ([1]; 30 mg to colon via Enterion capsule (Regimen C), 0.25 h post-dose): 0.0784 ng/mL
concentration at 0.5 h [1, 9]: 0.229 ng/mL
concentration at […] ([1]; 30 mg to colon via Enterion capsule (Regimen C), 0.75 h post-dose): 0.242 ng/mL
concentration at 1 h [1, 9]: 0.253 ng/mL
concentration at […] ([1]; 30 mg to colon via Enterion capsule (Regimen C), 1.5 h post-dose): 0.348 ng/mL
concentration at 2 h [1, 9]: 0.354 ng/mL
concentration at […] ([1]; 30 mg to colon via Enterion capsule (Regimen C), 2.5 h post-dose): 0.352 ng/mL
concentration at 3 h [1, 9]: 0.324 ng/mL
concentration at 4 h [1, 9]: 0.309 ng/mL
concentration at 6 h [1, 9]: 0.311 ng/mL
concentration at 8 h [1, 9]: 0.269 ng/mL
concentration at 12 h [1, 9]: 0.195 ng/mL
concentration at 14 h [1, 9]: 0.204 ng/mL
concentration at 16 h [1, 9]: 0.196 ng/mL
concentration at 24 h [1, 9]: 0.157 ng/mL
maximal plasma concentration of unconjugated phenylephrine as percentage of maximal plasma concentration of total phenylephrine ([1]; immediate release formulation by oral administration): less than 0.7%
Compound: CNC[C@H](O)c1cccc(O)c1 [Phenylephrine hydrochloride, phenylephrine hydrochloride]
half-life of active phenylephrine in plasma [2]: approximately 2 hours

Compound: CCOC(=O)N1CCC(=C2c3ccc(Cl)cc3CCc3cccnc32)CC1 [loratadine]
time the antihistaminic effect lasts [3]: > 24 h
